# The source made the active and inactive calls. No cut-off for these calls is given here.
# Key:
# Escherichia coli = assay: Antibacterial activity against Escherichia coli ATCC 25922 assessed as inhibition of bacterial growth incubated for overnight by broth microdilution method; assay type: functional
# Staphylococcus aureus = assay: Antibacterial activity against Staphylococcus aureus ATCC 29213 assessed as inhibition of bacterial growth incubated overnight by broth microdilution method; assay type: functional
# Klebsiella pneumoniae = assay: Antibacterial activity against Klebsiella pneumoniae ATCC 700603 assessed as inhibition of bacterial growth incubated overnight by broth microdilution method; assay type: functional
# Pseudomonas aeruginosa [1] = assay: Antibacterial activity against Pseudomonas aeruginosa ATCC 27853 assessed as inhibition of bacterial growth incubated overnight by broth microdilution method; assay type: functional
# [2] = Cytotoxicity against human HepG2 cells assessed as reduction in cell viability incubated for 24 hrs by MTT assay; assay type: toxicity, cell-based
# [3] = Selectivity index, IC50 for cytotoxicity against human HepG2 cells to MIC for antibacterial activity against Pseudomonas aeruginosa ATCC 27853 assessed as inhibition of bacterial growth; assay type: toxicity, cell-based; conditions: read-out: Selectivity Index
# HEK293 = assay: Cytotoxicity against HEK293 cells assessed as reduction in cell viability incubated for 24 hrs by CellTiter-Glo reagent based luminescence assay; assay type: toxicity; conditions: human, hek293, 24 h
# NIH3T3 = assay: Cytotoxicity against mouse 3T3 cells assessed as reduction in cell viability incubated for 24 hrs by CellTiter-Glo reagent based luminescence assay; assay type: toxicity; conditions: nih3t3, 24 h
# [4] = Hemolytic activity in human blood assessed as hemolysis at 492 ug/ml incubated for 45 mins by absorbance based plate reader analysis relative to control; assay type: toxicity, tissue-based; conditions: at 492 µg/mL, read-out: Activity
# [5] = Dissociation constant, pKa of compound at pH 7.4 by potentiometric titration method; assay type: physicochemical
# Pseudomonas aeruginosa [6] = assay: Antibacterial activity against Pseudomonas aeruginosa PAO1 assessed as inhibition of bacterial growth incubated overnight by broth microdilution method; assay type: functional
# Pseudomonas aeruginosa [7] = assay: Bactericidal activity against Pseudomonas aeruginosa PAO1 assessed as reduction in colony forming units at 4 times of MIC incubated for 1 hrs by time-kill kinetics assay relative to control; assay type: functional; design: scale not given: the % may be the effect or the level left
# Pseudomonas aeruginosa [8] = assay: Bactericidal activity against Pseudomonas aeruginosa PAO1 assessed as log reduction in colony forming units at 4 times of MIC incubated for 1 hrs by time-kill kinetics assay; assay type: functional
# Pseudomonas aeruginosa [9] = assay: Bactericidal activity against Pseudomonas aeruginosa PAO1 assessed as reduction in viable bacteria at 4 times of MIC measured at 8 to 48 hrs by time-kill kinetics assay; assay type: functional, organism-based; conditions: time 8-48 hrs
# Pseudomonas aeruginosa [10] = assay: Bactericidal activity against Pseudomonas aeruginosa PAO1 assessed as bacterial eradication at 8 times of MIC measured at 8 hrs by time-kill kinetics assay relative to control; assay type: functional
# Pseudomonas aeruginosa [11] = assay: Bactericidal activity against Pseudomonas aeruginosa PAO1 assessed as reduction in bacterial growth at 8 times of MIC measured after 48 hrs by time-kill kinetics assay; assay type: functional, organism-based
# Pseudomonas aeruginosa [12] = assay: Induction of resistance development in Pseudomonas aeruginosa PAO1 assessed as fold increase in MIC measured after consecutive passages for 21 days by serial passaging assay relative to day 1 MIC; assay type: functional; conditions: time 21 day
# Pseudomonas aeruginosa [13] = assay: Induction of spontaneous resistance development in Pseudomonas aeruginosa PAO1 assessed as frequency of resistance at 2 to 4 times of MIC incubated for 48 hrs by FoR assay; assay type: functional
# Pseudomonas aeruginosa [14] = assay: Inhibition of biofilm formation in Pseudomonas aeruginosa PAO1 at below MIC incubated for 24 hrs by crystal violet staining based analysis relative to control; assay type: functional
# Pseudomonas aeruginosa [15] = assay: Inhibition of biofilm formation in Pseudomonas aeruginosa PAO1 incubated for 24 hrs by crystal violet staining based analysis; assay type: functional
# Pseudomonas aeruginosa [16] = assay: Antibiofilm activity against preformed biofilm in Pseudomonas aeruginosa PAO1 assessed as biofilm killing at 128 ug/ml incubated for 24 hrs by BacTiter Glo reagent based luminescence analysis; assay type: functional, organism-based; conditions: dose 128.0 µg/ml
# Pseudomonas aeruginosa [17] = assay: Antibiofilm activity in Pseudomonas aeruginosa PAO1 assessed as eradication of preformed biofilm at 256 ug/ml incubated for 24 hr by BacTiter Glo reagent based luminescence analysis; assay type: functional, organism-based; conditions: dose 256.0 µg/ml
# Pseudomonas aeruginosa [18] = assay: Antibacterial activity against Pseudomonas aeruginosa PAO1 infected in C57BL/6 mouse wound model assessed as reduction in bacterial count on wound bed pre-infected with bacteria for 4 hrs followed by topical administration of compounds for 20 hrs and measured 24 hrs post infection; assay type: functional, organism-based; conditions: dose 0.1-2 %
# Pseudomonas aeruginosa [19] = assay: Antibacterial activity against Pseudomonas aeruginosa PAO1 infected in C57BL/6 mouse wound model assessed as log reduction in colony forming unit on wound bed at 0.5 % w/v pre-infected with bacteria for 4 hrs followed by topical administration of compounds for 20 hrs and measured 24 hrs post infection; assay type: functional
# Pseudomonas aeruginosa [20] = assay: Antibacterial activity against Pseudomonas aeruginosa PAO1 infected in C57BL/6 mouse wound model assessed as log reduction in colony forming unit on wound bed at 2 % w/v pre-infected with bacteria for 4 hrs followed by topical administration of compounds for 20 hrs and measured 24 hrs post infection; assay type: functional
# Pseudomonas aeruginosa [21] = assay: Antibacterial activity against Pseudomonas aeruginosa PAO1 infected in C57BL/6 mouse wound model assessed as reduction in bacterial count on wound bed at 2 to 8 % w/v pre-infected with bacteria for 24 hrs followed by topical administration of compounds for 24 hrs; assay type: functional, organism-based; conditions: dose 2-8 %
compound,measurement,setting,value
CC(=O)O.CC(=O)O.CC(=O)O.CC(=O)O.N=C(CC1CC1)NCCCOc1cc(/C=C/c2ccc(/C=C/c3cc(OCCCNC(=N)CC4CC4)cc(OCCCNC(=N)CC4CC4)c3)cc2)cc(OCCCNC(=N)CC2CC2)c1,MIC,Escherichia coli,2 µg/mL
same,MIC,Staphylococcus aureus,1 µg/mL
same,MIC,Klebsiella pneumoniae,4 µg/mL
same,MIC,Pseudomonas aeruginosa [1],8 µg/mL
same,IC50 at 24 h,[2],256 µg/mL
same,selectivity ratio,[3],32
CC(=O)O.CC(=O)O.CC(=O)O.CC(=O)O.CN(CCCOc1cc(/C=C/c2ccc(/C=C/c3cc(OCCCN(C)C(=N)C4CC4)cc(OCCCN(C)C(=N)C4CC4)c3)cc2)cc(OCCCN(C)C(=N)C2CC2)c1)C(=N)C1CC1,MIC,Escherichia coli,1 µg/mL
same,MIC,Staphylococcus aureus,1 µg/mL
same,MIC,Klebsiella pneumoniae,8 µg/mL
same,MIC,Pseudomonas aeruginosa [1],8 µg/mL
same,IC50 at 24 h,[2],1020 µg/mL
same,selectivity ratio,[3],128
CC(=O)O.CC(=O)O.CC(=O)O.CC(=O)O.CCCN(CCCOc1cc(/C=C/c2ccc(/C=C/c3cc(OCCCN(CCC)C(=N)C4CC4)cc(OCCCN(CCC)C(=N)C4CC4)c3)cc2)cc(OCCCN(CCC)C(=N)C2CC2)c1)C(=N)C1CC1,MIC,Staphylococcus aureus,1 µg/mL
same,IC50 at 24 h,[2],16 µg/mL
same,selectivity ratio,[3],0.5
CC[C@H]1OC(=O)[C@H](C)[C@@H](O[C@H]2C[C@@](C)(OC)[C@@H](O)[C@H](C)O2)[C@H](C)[C@@H](O[C@@H]2O[C@H](C)C[C@H](N(C)C)[C@H]2O)[C@](C)(O)C[C@@H](C)C(=O)[C@H](C)[C@@H](O)[C@]1(C)O [ERYTHROMYCIN],MIC,Staphylococcus aureus,0.25 µg/mL
C(=C\c1cc(OCCCNC2=NCCC2)cc(OCCCNC2=NCCC2)c1)/c1ccc(/C=C/c2cc(OCCCNC3=NCCC3)cc(OCCCNC3=NCCC3)c2)cc1.CC(=O)O.CC(=O)O.CC(=O)O.CC(=O)O,MIC,Escherichia coli,2 µg/mL
same,MIC,Staphylococcus aureus,1 µg/mL
same,MIC,Klebsiella pneumoniae,16 µg/mL
same,MIC,Pseudomonas aeruginosa [1],16 µg/mL
same,IC50 at 24 h,[2],1020 µg/mL
same,selectivity ratio,[3],64
CC(=O)O.CC(=O)O.CC(=O)O.CC(=O)O.N=C(NCCCOc1cc(/C=C/c2ccc(/C=C/c3cc(OCCCNC(=N)C4CC4)cc(OCCCNC(=N)C4CC4)c3)cc2)cc(OCCCNC(=N)C2CC2)c1)C1CC1,MIC,Staphylococcus aureus,0.5 µg/mL
same,IC50 at 24 h,[2],1020 µg/mL
same,selectivity ratio,[3],512
same,Activity,HEK293,Non-Toxic
same,Activity,NIH3T3,Non-Toxic
same,"hemolysis at 0.75 h, 492 ug/ml",[4],0.2%
same,pKa,[5],10
same,MIC,Pseudomonas aeruginosa [6],8 µg/mL
same,Activity,Pseudomonas aeruginosa [7],99.9%
same,log(activity),Pseudomonas aeruginosa [8],3
same,Activity,Pseudomonas aeruginosa [9],inactive
same,Activity,Pseudomonas aeruginosa [10],100%
same,Activity,Pseudomonas aeruginosa [11],Active
same,fold change (FC),Pseudomonas aeruginosa [12],4
same,Activity,Pseudomonas aeruginosa [13],<1.3 10^-8No_unit
same,inhibition (INH),Pseudomonas aeruginosa [14],~31%
same,MBIC50,Pseudomonas aeruginosa [15],1 µg/mL
same,MBIC90,Pseudomonas aeruginosa [15],4 µg/mL
same,Activity,Pseudomonas aeruginosa [16],Active
same,Activity,Pseudomonas aeruginosa [17],Active
same,Activity,Pseudomonas aeruginosa [18],Dose-Dependent Effect
same,log(activity),Pseudomonas aeruginosa [19],1.5
same,log(activity),Pseudomonas aeruginosa [20],2.8
same,Activity,Pseudomonas aeruginosa [21],Active
C/N=C(/C)NCCCOc1cc(/C=C/c2ccc(/C=C/c3cc(OCCCN/C(C)=N\C)cc(OCCCN/C(C)=N/C)c3)cc2)cc(OCCCN/C(C)=N/C)c1.CC(=O)O.CC(=O)O.CC(=O)O.CC(=O)O,MIC,Escherichia coli,2 µg/mL
same,MIC,Staphylococcus aureus,1 µg/mL
same,MIC,Klebsiella pneumoniae,16 µg/mL
same,MIC,Pseudomonas aeruginosa [1],32 µg/mL
same,IC50 at 24 h,[2],> 1020 µg/mL
same,selectivity ratio,[3],> 32
